Patent US20050054555A1, “Kahalalide compounds for use in cancer therapy” (priority 2001, published 2005)

Assays:
[1] = Phase I trial KHF-A-001-00: plasma pharmacokinetics (LC-MS/MS); format: in vivo, human
Protocol: Bioanalysis of KF was performed by LC-MS/MS.

[2] = system: advanced or metastatic androgen refractory prostate cancer
Protocol: OBJECTIVE: In the present phase I clinical and pharmacokinetic (PK) study the toxicity profiles PK and anti-tumour activity of KF are investigated. METHODS: KF is administered as an intravenous infusion over one hour, during five consecutive days every three weeks in patients with advanced or metastatic androgen refractory prostate cancer. On the basis of the MTD values defined in mice, a starting dose of 20 μg/m2/day was selected, which is equivalent to a total dose of 100 μg/m2. PK of KF were determined in plasma during the first course. Bioanalysis of KF was performed by LC-MS/MS. LDH, AF and especially PSA levels of each patient were also evaluated during the study to determine the activity of KF. […] One patient per level was entered at 20, 40, 80 and 160 μg/m2/day. […] The first patient of this study was re-entered at this dose level.

[3] = system: patients with advanced or metastatic prostate cancer; experiment: Phase I trial KHF-A-001-00: safety of kahalalide F daily x 5 over 1 hour infusion every 21 days; format: in vivo, human
From the text: The rate of subject entry and escalation to the next dose level will depend upon assessment of the safety profile of patients entered at each dose level. Toxicity will be evaluated and graded according to the Common Toxicity Criteria, version 2.0.
In order to minimize the number of patients treated at the subtoxic dose levels, a single patient will be treated per dose level with 100% dose escalation in the absence of any toxicity G2 (excluding alopecia) during their first course of treatment. After the occurrence of grade 2 toxicity (excluding asthenia, alopecia, nausea and vomiting or anemia), the dose level is expanded to three patients with only 50% incremental increase in dosage in advancing to the next dose level. For the occurrence of grade 3 non-hematological toxic effects the dose level should be expanded up to six patients. This second cohort of 3 patients will be included consecutively. If the first or second patient develops dose limiting toxicities no further patients will be treated at this dose level, it will be defined as MTD and the accrual will begin at a lower dose level. If only one DLT occurs at this dose level another 3 patients will be included at the next dose level with an increase of 25% only.
There is no intrapatient dose escalation, only de-escalation. If the toxicity is grade 3 or worse in a course of chemotherapy, then the dose is reduced one level for the next course.
The maximum tolerated dose (MTD) is defined as the dose at which at least 2 out of 3 or more than 3 patients experience DLT. However, it is possible that additional patients may experience DLT due to the timing of patient enrollment into that dose level.
Dose limiting toxicities (DLTs) are defined as follows: […]
Grade IV Neutropenia lasting for >5 days or with a temperature >38.5.
Grade IV thrombocytopenia.
Any other grade III or IV non hematological toxicity, excluding nausea, emesis and hypersensitivity reactions.
Grade III or IV liver toxicity if not reversible by day 21.
These toxicities are only considered DLTs if they happen during cycle 1. […]
A dose of 20 mcg/m2 was considered a safe starting dose on the basis of acute toxicity studies in animals. The trial was designed as an accelerated dose escalation (pharmacokinetically guided).

[4] = 19 patients, daily x5 every 21 days, all dose levels
[5] = 20 patients, daily x5 every 21 days, all dose levels
[6] = 20 patients, daily x5 every 21 days, all dose levels, calcium adjusted
[7] = 20 patients, daily x5 every 21 days, all dose levels, not drug-related

C/C=C1\NC(=O)[C@H](Cc2ccccc2)NC(=O)[C@@H](C(C)C)NC(=O)[C@@H](C(C)CC)NC(=O)[C@H](NC(=O)C(NC(=O)[C@H](CCCN)NC(=O)[C@H]2CCCN2C(=O)[C@H](NC(=O)[C@@H](NC(=O)[C@@H](NC(=O)[C@H](NC(=O)CCCC(C)C)C(C)C)C(C)O)C(C)C)C(C)C)C(C)CC)C(C)OC(=O)[C@H](C(C)C)NC1=O (single isomer, unassigned) [kahalalide F]
Maximum plasma concentrations ([1]; dose level 320 μg/m2/day): 35 to 50 ng/mL
clearance ([1]; male, human, plasma, iv infusion over 1 h, 5 consecutive days every 3 weeks, first course, 20-320 μg/m2/day, read-out: Total plasma clearance): 267 mL/min
half-life ([1]; male, human, plasma, iv infusion over 1 h, 5 consecutive days every 3 weeks, first course, read-out: terminal half-life (converted)): 27.6 min
relationship between dose and AUC ([1]; whole dose range 20-320 μg/m2/day): linear relationship
decrease in PSA level ([2]; one patient, associated with pain relief, preliminary report): > 50%
response evaluated by PSA, one patient ([2]; patient received 8 cycles, clinical improvement): partial response
PSA change in two additional patients ([2]; preliminary report): minor PSA reductions
only drug related toxicity to date ([3]; 320 μg/m2/day, rapidly reversible, preliminary report, 7 patients): CTC grade 3 ASAT
Hematologic toxicity (worst per patient): Hemoglobin, Grade 1 [3, 4]: 63.2%
Hematologic toxicity (worst per patient): Hemoglobin, Grade 2 [3, 4]: 26.3%
Hematologic toxicity (worst per patient): Hemoglobin, Grade 3 [3, 4]: 0%
Hematologic toxicity (worst per patient): Hemoglobin, Grade 4 [3, 4]: 0%
Hematologic toxicity (worst per patient): Leukocytes, Grade 1 [3, 4]: 10.5%
Hematologic toxicity (worst per patient): Leukocytes, Grade 2 [3, 4]: 0%
Hematologic toxicity (worst per patient): Leukocytes, Grade 3 [3, 4]: 0%
Hematologic toxicity (worst per patient): Leukocytes, Grade 4 [3, 4]: 0%
Hematologic toxicity (worst per patient): Neutrophils, Grade 1 [3, 4]: 5%
Hematologic toxicity (worst per patient): Neutrophils, Grade 2 [3, 4]: 5%
Hematologic toxicity (worst per patient): Neutrophils, Grade 3 [3, 4]: 0%
Hematologic toxicity (worst per patient): Neutrophils, Grade 4 [3, 4]: 0%
Hematologic toxicity (worst per patient): Platelets, Grade 1 [3, 4]: 21.1%
Hematologic toxicity (worst per patient): Platelets, Grade 2 [3, 4]: 0%
Hematologic toxicity (worst per patient): Platelets, Grade 3 [3, 4]: 0%
Hematologic toxicity (worst per patient): Platelets, Grade 4 [3, 4]: 0%
Most frequently reported non-hematologic toxicities: Diarrhea, Grade 1 [3, 5]: 10
Most frequently reported non-hematologic toxicities: Diarrhea, Grade 2 [3, 5]: 5
Most frequently reported non-hematologic toxicities: Diarrhea, Grade 3 [3, 5]: 0
Most frequently reported non-hematologic toxicities: Diarrhea, Grade 4 [3, 5]: 0
Most frequently reported non-hematologic toxicities: Fatigue, Grade 1 [3, 5]: 35
Most frequently reported non-hematologic toxicities: Fatigue, Grade 2 [3, 5]: 10
Most frequently reported non-hematologic toxicities: Fatigue, Grade 3 [3, 5]: 25
Most frequently reported non-hematologic toxicities: Fatigue, Grade 4 [3, 5]: 0
Most frequently reported non-hematologic toxicities: Hypersensitivity, Grade 1 [3, 5]: 20
Most frequently reported non-hematologic toxicities: Hypersensitivity, Grade 2 [3, 5]: 5
Most frequently reported non-hematologic toxicities: Hypersensitivity, Grade 3 [3, 5]: 0
Most frequently reported non-hematologic toxicities: Hypersensitivity, Grade 4 [3, 5]: 0
Most frequently reported non-hematologic toxicities: Inject-site reaction, Grade 1 [3, 5]: 10
Most frequently reported non-hematologic toxicities: Inject-site reaction, Grade 2 [3, 5]: 20
Most frequently reported non-hematologic toxicities: Inject-site reaction, Grade 3 [3, 5]: 0
Most frequently reported non-hematologic toxicities: Inject-site reaction, Grade 4 [3, 5]: 0
Most frequently reported non-hematologic toxicities: Nausea, Grade 1 [3, 5]: 15
Most frequently reported non-hematologic toxicities: Nausea, Grade 2 [3, 5]: 10
Most frequently reported non-hematologic toxicities: Nausea, Grade 3 [3, 5]: 0
Most frequently reported non-hematologic toxicities: Nausea, Grade 4 [3, 5]: 0
Most frequently reported non-hematologic toxicities: Periph-sens neuro, Grade 1 [3, 5]: 20
Most frequently reported non-hematologic toxicities: Periph-sens neuro, Grade 2 [3, 5]: 0
Most frequently reported non-hematologic toxicities: Periph-sens neuro, Grade 3 [3, 5]: 5
Most frequently reported non-hematologic toxicities: Periph-sens neuro, Grade 4 [3, 5]: 0
Most frequently reported non-hematologic toxicities: Vomiting, Grade 1 [3, 5]: 15
Most frequently reported non-hematologic toxicities: Vomiting, Grade 2 [3, 5]: 10
Most frequently reported non-hematologic toxicities: Vomiting, Grade 3 [3, 5]: 0
Most frequently reported non-hematologic toxicities: Vomiting, Grade 4 [3, 5]: 0
Non-hematologic toxicity, lab abnormalities per patient: Albumin, Grade 1 [3, 5]: 30%
Non-hematologic toxicity, lab abnormalities per patient: Albumin, Grade 2 [3, 5]: 10%
Non-hematologic toxicity, lab abnormalities per patient: Albumin, Grade 3 [3, 5]: 5%
Non-hematologic toxicity, lab abnormalities per patient: Albumin, Grade 4 [3, 5]: 0%
Non-hematologic toxicity, lab abnormalities per patient: Bilirubin, Grade 1 [3, 5]: 10%
Non-hematologic toxicity, lab abnormalities per patient: Bilirubin, Grade 2 [3, 5]: 0%
Non-hematologic toxicity, lab abnormalities per patient: Bilirubin, Grade 3 [3, 5]: 0%
Non-hematologic toxicity, lab abnormalities per patient: Bilirubin, Grade 4 [3, 5]: 0%
Non-hematologic toxicity, lab abnormalities per patient: CPK, Grade 1 [3, 5]: 35%
Non-hematologic toxicity, lab abnormalities per patient: CPK, Grade 2 [3, 5]: 0%
Non-hematologic toxicity, lab abnormalities per patient: CPK, Grade 3 [3, 5]: 0%
Non-hematologic toxicity, lab abnormalities per patient: CPK, Grade 4 [3, 5]: 0%
Non-hematologic toxicity, lab abnormalities per patient: Creatinine, Grade 1 [3, 5]: 35%
Non-hematologic toxicity, lab abnormalities per patient: Creatinine, Grade 2 [3, 5]: 0%
Non-hematologic toxicity, lab abnormalities per patient: Creatinine, Grade 3 [3, 5]: 0%
Non-hematologic toxicity, lab abnormalities per patient: Creatinine, Grade 4 [3, 5]: 0%
Non-hematologic toxicity, lab abnormalities per patient: GGT, Grade 1 [3, 5]: 35%
Non-hematologic toxicity, lab abnormalities per patient: GGT, Grade 2 [3, 5]: 15%
Non-hematologic toxicity, lab abnormalities per patient: GGT, Grade 3 [3, 5]: 25%
Non-hematologic toxicity, lab abnormalities per patient: GGT, Grade 4 [3, 5]: 5%
Non-hematologic toxicity, lab abnormalities per patient: GOT, Grade 1 [3, 5]: 40%
Non-hematologic toxicity, lab abnormalities per patient: GOT, Grade 2 [3, 5]: 15%
Non-hematologic toxicity, lab abnormalities per patient: GOT, Grade 3 [3, 5]: 15%
Non-hematologic toxicity, lab abnormalities per patient: GOT, Grade 4 [3, 5]: 10%
Non-hematologic toxicity, lab abnormalities per patient: GPT, Grade 1 [3, 5]: 15%
Non-hematologic toxicity, lab abnormalities per patient: GPT, Grade 2 [3, 5]: 25%
Non-hematologic toxicity, lab abnormalities per patient: GPT, Grade 3 [3, 5]: 20%
Non-hematologic toxicity, lab abnormalities per patient: GPT, Grade 4 [3, 5]: 10%
Non-hematologic toxicity, lab abnormalities per patient: Hypo P, Grade 1 [3, 5]: 10%
Non-hematologic toxicity, lab abnormalities per patient: Hypo P, Grade 2 [3, 5]: 15%
Non-hematologic toxicity, lab abnormalities per patient: Hypo P, Grade 3 [3, 5]: 0%
Non-hematologic toxicity, lab abnormalities per patient: Hypo P, Grade 4 [3, 5]: 0%
Non-hematologic toxicity, lab abnormalities per patient: HypoK+, Grade 1 [3, 5]: 20%
Non-hematologic toxicity, lab abnormalities per patient: HypoK+, Grade 2 [3, 5]: 0%
Non-hematologic toxicity, lab abnormalities per patient: HypoK+, Grade 3 [3, 5]: 0%
Non-hematologic toxicity, lab abnormalities per patient: HypoK+, Grade 4 [3, 5]: 0%
Non-hematologic toxicity, lab abnormalities per patient: HypoNa+, Grade 1 [3, 5]: 10%
Non-hematologic toxicity, lab abnormalities per patient: HypoNa+, Grade 2 [3, 5]: 0%
Non-hematologic toxicity, lab abnormalities per patient: HypoNa+, Grade 3 [3, 5]: 5%
Non-hematologic toxicity, lab abnormalities per patient: HypoNa+, Grade 4 [3, 5]: 5%
Non-hematologic toxicity, lab abnormalities per patient: HypoCa*, Grade 1 [3, 6]: 65%
Non-hematologic toxicity, lab abnormalities per patient: HypoCa*, Grade 2 [3, 6]: 0%
Non-hematologic toxicity, lab abnormalities per patient: HypoCa*, Grade 3 [3, 6]: 0%
Non-hematologic toxicity, lab abnormalities per patient: HypoCa*, Grade 4 [3, 6]: 0%
Most frequently reported non-hematologic toxicities: Hypertension, Grade 1 [3, 7]: 0
Most frequently reported non-hematologic toxicities: Hypertension, Grade 2 [3, 7]: 0
Most frequently reported non-hematologic toxicities: Hypertension, Grade 3 [3, 7]: 15
Most frequently reported non-hematologic toxicities: Hypertension, Grade 4 [3, 7]: 0
Non-hematologic toxicity, lab abnormalities per patient: Alk. phosphatase, Grade 1 [3, 7]: 35%
Non-hematologic toxicity, lab abnormalities per patient: Alk. phosphatase, Grade 2 [3, 7]: 20%
Non-hematologic toxicity, lab abnormalities per patient: Alk. phosphatase, Grade 3 [3, 7]: 25%
Non-hematologic toxicity, lab abnormalities per patient: Alk. phosphatase, Grade 4 [3, 7]: 5%
Worst toxicity ([3]; Level I, dose 20 mcg/m2, 1 patient): none
Worst toxicity ([3]; Level II, dose 40, 1 patient): none
Worst toxicity ([3]; Level III, dose 80, 1 patient): none
Worst toxicity ([3]; Level IV, dose 160, 1 patient): none
Worst toxicity ([3]; Level VI, dose 425, 3 patients): none
Worst toxicity ([3]; Level VIII, dose 700, 3 patients): none
hematological toxicity ([3]; daily x5 schedule): no hematological toxicity was seen
most commonly seen liver toxicity in the MTD ([3]; daily x5 schedule): grade 4 transaminases elevation
